Experimental data published in patent publication US20250339569A1, “CARBONIC ANHYDRASE IX LIGANDS” (priority 2021, published 2025).
Starred links: 1 amine or outer side, 2 acyl side, 3 side chain; linkers in the order of their positions; H or OH if unused. Positions of bridges follow the written chain, without caps; N, C: chain ends. Non-standard residues stand in square brackets, D forms with d. Residues, ends and D or L forms follow the SMILES beside them. ξ: configuration not given here. *: point of attachment. NH(1-deoxy-D-glucityl) = OC[C@@H](O)[C@@H](O)[C@H](O)[C@@H](O)CN*; DOTA = O=C(O)CN1CCN(CC(=O)O)CCN(CC(=O)*)CCN(CC(=O)O)CC1; X19 = O=C([C@H](CS(=O)(=O)Cc1ccccc1)N[*:1])[*:2]; Phe(3-CF3) = N[C@@H](Cc1cccc(C(F)(F)F)c1)C(=O)O; Phe(4-CF3) = N[C@@H](Cc1ccc(C(F)(F)F)cc1)C(=O)O; ξTrp(7-Me) = Cc1cccc2c(CC(N)C(=O)O)c[nH]c12; ξTrp(1-Me) = Cn1cc(CC(N)C(=O)O)c2ccccc21; Phe(4-I) = N[C@@H](Cc1ccc(I)cc1)C(=O)O; mXylylene = c1cc(C[*:1])cc(C[*:2])c1; X2 = O=C(CN1CCC(N[*:1])CC1)[*:2]; Cha = N[C@@H](CC1CCCCC1)C(=O)O; Dap = NC[C@H](N)C(=O)O

Legend:
[1] = target: T1, CAIX-expressing human HT-29 colorectal cancer cells (Homo sapiens, UniProt Q16790); test: FACS binding assay (IC50 determination, competition with tracer 3BP-2776 or 3BP-4149); settings: FACS binding assay, HT-29 cells, competition with tracer 3BP-2776 (10 nM, biotin-labeled), 4° C., 1 hour; read-out: pIC50 category (activity) (converted)
T1 construct: CAIX-expressing human HT-29 colorectal cancer cells; host or cells: HT-29 human colorectal cancer cells
Method in brief: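 HT-29 cells in FACS buffer (PBS, 1% FCS) at 500.000 cells/ml were exposed to compounds competing with a labelled tracer, with biotinylated compounds detected by 1 μg/mL APC-streptavidin for 30 min on ice. APC/Cy5 median fluorescence was read by flow cytometry and IC50 derived by 4PL fit.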

[2] = target: T2, human carbonic anhydrase IX (hCAIX-Fc) (Homo sapiens, UniProt Q16790); test: Surface plasmon resonance assay with hCAIX-Fc; type: binding; settings: 25° C.; for t1/2 category (activity): SPR dissociation half-life, hCAIX-Fc; for Kd: SPR, hCAIX-Fc captured, read-out: pKD category (activity) (converted)
T2 construct: purchased SinoBliological (Sino Biological) 10107-H02H

IC50 [1] [nM]	t1/2 category (activity) [2]	Kd [2] [nM]	SMILES
< 10	A (t1/2>15.0 minutes)	< 10	CC(C)C[C@@H]1NC(=O)[C@H](Cc2c[nH]c3ccccc23)NC(=O)[C@H](CC(=O)O)NC(=O)[C@H]2CCCN2C(=O)[C@H](CCC(=O)O)NC(=O)[C@@H](NC(=O)[C@H](Cc2ccc(O)cc2)NC(=O)[C@@H](NC(=O)CN2CCC(NC(=O)CN3CCN(CC(=O)O)CCN(CC(=O)O)CCN(CC(=O)O)CC3)CC2)C(C)C)CSCc2cccc(c2)CSC[C@@H](C(N)=O)NC(=O)[C@H](CCC(=O)NC[C@H](O)[C@@H](O)[C@H](O)[C@H](O)CO)NC(=O)[C@H](Cc2c[nH]c3ccccc23)NC(=O)[C@H]([C@@H](C)O)NC1=O [3BP-4122] ({DOTA}-[X2]VYCE[dP]DWLTWE(NH(1-deoxy-D-glucityl))C-NH2; linker 4-13 via mXylylene)
< 10	A (t1/2>15.0 minutes)	< 10	CC(C)C[C@@H]1NC(=O)[C@H](Cc2c[nH]c3ccccc23)NC(=O)[C@H](CS(=O)(=O)Cc2ccccc2)NC(=O)[C@H]2CCCN2C(=O)[C@H](CCC(=O)O)NC(=O)[C@@H](NC(=O)[C@H](Cc2ccc(O)cc2)NC(=O)[C@@H](NC(=O)CN2CCC(NC(=O)CN3CCN(CC(=O)O)CCN(CC(=O)O)CCN(CC(=O)O)CC3)CC2)C(C)C)CSCc2cccc(c2)CSC[C@@H](C(N)=O)NC(=O)[C@H](CO)NC(=O)[C@H](Cc2c[nH]c3ccccc23)NC(=O)[C@H]([C@@H](C)O)NC1=O [3BP-4123] ({DOTA}-[X2]VYCE[dP][X19]WLTWSC-NH2; linker 4-13 via mXylylene)
< 10	C (t1/2 between 2.1 and 5.0 minutes)	< 10	CC(C)C[C@@H]1NC(=O)[C@H](Cc2ccc(I)cc2)NC(=O)[C@H](CC(=O)O)NC(=O)[C@H]2CCCN2C(=O)[C@H](CCC(=O)O)NC(=O)[C@@H](NC(=O)[C@H](Cc2ccc(O)cc2)NC(=O)[C@@H](NC(=O)CN2CCC(NC(=O)CN3CCN(CC(=O)O)CCN(CC(=O)O)CCN(CC(=O)O)CC3)CC2)C(C)C)CSCc2cccc(c2)CSC[C@@H](C(N)=O)NC(=O)[C@H](CO)NC(=O)[C@H](Cc2c[nH]c3ccccc23)NC(=O)[C@H]([C@@H](C)O)NC1=O [3BP-4134] ({DOTA}-[X2]VYCE[dP]D[Phe(4-I)]LTWSC-NH2; linker 4-13 via mXylylene)
< 10	B (t1/2 between 5.1 and 15.0 minutes)	< 10	CC(C)C[C@@H]1NC(=O)[C@H](Cc2cccc(C(F)(F)F)c2)NC(=O)[C@H](CC(=O)O)NC(=O)[C@H]2CCCN2C(=O)[C@H](CCC(=O)O)NC(=O)[C@@H](NC(=O)[C@H](Cc2ccc(O)cc2)NC(=O)[C@@H](NC(=O)CN2CCC(NC(=O)CN3CCN(CC(=O)O)CCN(CC(=O)O)CCN(CC(=O)O)CC3)CC2)C(C)C)CSCc2cccc(c2)CSC[C@@H](C(N)=O)NC(=O)[C@H](CO)NC(=O)[C@H](Cc2c[nH]c3ccccc23)NC(=O)[C@H]([C@@H](C)O)NC1=O [3BP-4135] ({DOTA}-[X2]VYCE[dP]D[Phe(3-CF3)]LTWSC-NH2; linker 4-13 via mXylylene)
< 10	C (t1/2 between 2.1 and 5.0 minutes)	< 10	CC(C)C[C@@H]1NC(=O)[C@H](Cc2ccc(C(F)(F)F)cc2)NC(=O)[C@H](CC(=O)O)NC(=O)[C@H]2CCCN2C(=O)[C@H](CCC(=O)O)NC(=O)[C@@H](NC(=O)[C@H](Cc2ccc(O)cc2)NC(=O)[C@@H](NC(=O)CN2CCC(NC(=O)CN3CCN(CC(=O)O)CCN(CC(=O)O)CCN(CC(=O)O)CC3)CC2)C(C)C)CSCc2cccc(c2)CSC[C@@H](C(N)=O)NC(=O)[C@H](CO)NC(=O)[C@H](Cc2c[nH]c3ccccc23)NC(=O)[C@H]([C@@H](C)O)NC1=O [3BP-4139] ({DOTA}-[X2]VYCE[dP]D[Phe(4-CF3)]LTWSC-NH2; linker 4-13 via mXylylene)
< 10	C (t1/2 between 2.1 and 5.0 minutes)	< 10	CC(C)[C@H](NC(=O)CN1CCC(NC(=O)CN2CCN(CC(=O)O)CCN(CC(=O)O)CCN(CC(=O)O)CC2)CC1)C(=O)N[C@@H](Cc1ccc(O)cc1)C(=O)N[C@H]1CSCc2cccc(c2)CSC[C@@H](C(N)=O)NC(=O)[C@H](CO)NC(=O)[C@H](Cc2c[nH]c3ccccc23)NC(=O)[C@H]([C@@H](C)O)NC(=O)[C@H](CC2CCCCC2)NC(=O)[C@H](Cc2c[nH]c3ccccc23)NC(=O)[C@H](CC(=O)O)NC(=O)[C@H]2CCCN2C(=O)[C@H](CCC(=O)O)NC1=O [3BP-4143] ({DOTA}-[X2]VYCE[dP]DW[Cha]TWSC-NH2; linker 4-13 via mXylylene)
< 10	B (t1/2 between 5.1 and 15.0 minutes)	< 10	CC(C)C[C@@H]1NC(=O)C(Cc2cn(C)c3ccccc23)NC(=O)[C@H](CC(=O)O)NC(=O)[C@H]2CCCN2C(=O)[C@H](CCC(=O)O)NC(=O)[C@@H](NC(=O)[C@H](Cc2ccc(O)cc2)NC(=O)[C@@H](NC(=O)CN2CCC(NC(=O)CN3CCN(CC(=O)O)CCN(CC(=O)O)CCN(CC(=O)O)CC3)CC2)C(C)C)CSCc2cccc(c2)CSC[C@@H](C(N)=O)NC(=O)[C@H](CO)NC(=O)[C@H](Cc2c[nH]c3ccccc23)NC(=O)[C@H]([C@@H](C)O)NC1=O (stereo partly drawn) [3BP-4144] ({DOTA}-[X2]VYCE[dP]D[ξTrp(1-Me)]LTWSC-NH2; linker 4-13 via mXylylene)
< 10	B (t1/2 between 5.1 and 15.0 minutes)	< 10	Cc1cccc2c(CC3NC(=O)[C@H](CC(=O)O)NC(=O)[C@H]4CCCN4C(=O)[C@H](CCC(=O)O)NC(=O)[C@@H](NC(=O)[C@H](Cc4ccc(O)cc4)NC(=O)[C@@H](NC(=O)CN4CCC(NC(=O)CN5CCN(CC(=O)O)CCN(CC(=O)O)CCN(CC(=O)O)CC5)CC4)C(C)C)CSCc4cccc(c4)CSC[C@@H](C(N)=O)NC(=O)[C@H](CO)NC(=O)[C@H](Cc4c[nH]c5ccccc45)NC(=O)[C@H]([C@@H](C)O)NC(=O)[C@H](CC(C)C)NC3=O)c[nH]c12 (stereo partly drawn) [3BP-4158] ({DOTA}-[X2]VYCE[dP]D[ξTrp(7-Me)]LTWSC-NH2; linker 4-13 via mXylylene)
< 10	A (t1/2>15.0 minutes)	< 10	CC(C)C[C@@H]1NC(=O)[C@H](Cc2c[nH]c3ccccc23)NC(=O)[C@H](CC(=O)O)NC(=O)[C@H]2CCCN2C(=O)[C@H](CCC(=O)O)NC(=O)[C@@H]2CSCc3cccc(c3)CSC[C@@H](C(N)=O)NC(=O)[C@H](CNC(=O)CC[C@H](NC(=O)[C@@H](NC(=O)CN3CCC(NC(=O)CN4CCN(CC(=O)O)CCN(CC(=O)O)CCN(CC(=O)O)CC4)CC3)C(C)C)C(=O)N2)NC(=O)[C@H](Cc2c[nH]c3ccccc23)NC(=O)[C@H]([C@@H](C)O)NC1=O [3BP-4175] ({DOTA}-[X2]VECE[dP]DWLTW[Dap]C-NH2; lactam 3-12; linker 4-13 via mXylylene)
< 10	C (t1/2 between 2.1 and 5.0 minutes)	< 10	CC(C)C[C@@H]1NC(=O)[C@H](Cc2c[nH]c3ccccc23)NC(=O)[C@H](CC(=O)O)NC(=O)[C@H]2CCCN2C(=O)[C@H](CCC(=O)O)NC(=O)[C@@H]2CSCc3cccc(c3)CSC[C@@H](C(N)=O)NC(=O)[C@H](CC(=O)NC[C@H](NC(=O)[C@@H](NC(=O)CN3CCC(NC(=O)CN4CCN(CC(=O)O)CCN(CC(=O)O)CCN(CC(=O)O)CC4)CC3)C(C)C)C(=O)N2)NC(=O)[C@H](Cc2c[nH]c3ccccc23)NC(=O)[C@H]([C@@H](C)O)NC1=O [3BP-4176] ({DOTA}-[X2]V[Dap]CE[dP]DWLTWDC-NH2; lactam 3-12; linker 4-13 via mXylylene)
